Values of other authors in US20160361270A1, “UNIFORM, HIGH BASIS WEIGHT NANOFIBER FABRICS FOR MEDICAL APPLICATIONS” (University of Washington, priority 2015, published 2016).

How the values were obtained:
[1] = not given; remark: listed apart in the source

water solubility	SMILES	pKa [1]
< 100 µg/mL	Cc1cc(C#N)cc(C)c1Oc1nc(Nc2ccc(C#N)cc2)nc(N)c1Br [etravirine]	–
–	Cc1nnc(C(=O)NC(C)(C)c2nc(C(=O)NCc3ccc(F)cc3)c(O)c(=O)n2C)o1 [raltegravir]	7
< 1 µg/mL	Cc1cc(C)c(Nc2ccnc(Nc3ccc(C#N)cc3)n2)c(C)c1 [dapivirine]	–

SMILES	water solubility	pKa [1]
C[C@H](Cn1cnc2c(N)ncnc21)OCP(=O)(O)O [tenofovir]	> 1000 µg/mL	–
